Experiment: Equilibrium/saturation study of solvent solubility in PVA solutions with increasing salt concentration
Assay type: physicochemical
Experimental: An equilibrium/saturation study was performed to measure solvent solubilities in PVA solutions in increasing salt concentration levels. The saturation solubility in weight % of ethyl acetate and methylene chloride were individually tested with varying sodium chloride weight % in a 2% PVA aqueous solution. […] At about 15 weight % sodium chloride contention, the PVA began to salt out of the solution.

- saturation solubility in weight % as the sodium chloride content was increased: decreased
Structure (SMILES): CCOC(C)=O [ethyl acetate]

Reference: patent US10821080B2, “Microencapsulation process with solvent and salt” (Evonik Corporation, priority 2008, dated 2020)
